Results reported in patent US8541342B2, “Fungicidal substance combinations” (Bayer Cropsciene AG, priority 2007, dated 2013).

Legend:
Pyrenophora teres = Pyrenophora teres test (barley)/protective; conditions: protective spray on barley, evaluation 10 days after inoculation
Gibberella zeae = assay: microbe, parasite or virus in culture; format: cell-based; conditions: Fusarium graminearum, 120 h, read-out: % efficacy

`Cc1nn(C)c(F)c1C(=O)Nc1ccccc1C(C)CC(C)C` (stereo not shown) [(I), N-[2-(1,3-Dimethylbutyl)phenyl]-5-fluoro-1,3-dimethyl-1H-pyrazole-4-carboxamide] was tested, and the “Efficacy in % found” value (Pyrenophora teres; 62.5 g/ha) was 67%.
With `CO/N=C(/C(=O)OC)c1ccccc1CO/N=C(\C)c1cccc(C(F)(F)F)c1` [Trifloxystrobin, trifloxystrobin] the Efficacy at 0.3 ppm (Gibberella zeae) was 40% and the “Efficacy in % found” value (Pyrenophora teres; 62.5 g/ha) was 78%.
With `COCC(=O)N(c1c(C)cccc1C)C(C)C(=O)OC` (stereo not shown) [(III), Metalaxyl] the “Efficacy in % found” value (Pyrenophora teres; 125 g/ha) was 22%.
